# Assay results taken from US20080207667A1 (priority 2007, published 2008).
# Tests used:
# asthmatic = experiment: Spirometry pre and post treatment with nebulized nalbuphine (Example 2); type: in vivo, human
# Experimental: In this example, an asthmatic taking advair diskus for treatment of asthma was treated with nalbuphine according to the present method. Spirometry measurements were taken pre and post treatment with nebulized nalbuphine.
# smoker = experiment: Spirometry pre and post treatment with nebulized nalbuphine (Example 3); type: in vivo, human
# Description: Spirometry measurements were taken pre and post treatment with nebulized nalbuphine.
# [1] = tested on: subject suffering from a respiratory disorder (former smoker); experiment: Spirometry pre and post treatment with nebulized nalbuphine (Example 1); type: in vivo, human; conditions: for FEF (25–75%) % of Prediction / FEF (25–75%) (L/S) Actual / FEV1 % of Prediction / FEV1 (L) Actual / FEV1/FVC % of Prediction / FEV1/FVC (%) Actual / FVC % of Prediction / FVC (L) Actual / PEF % of Prediction / PEF (L/S) Actual / FEF (25–75%) % Change / FEV1 % Change / FEV1/FVC % Change / FVC % Change / PEF % Change: post nebulized nalbuphine
# Description: This example illustrates the use of nalbuphine to treat a subject suffering from a respiratory disorder. The subject was a former smoker. Spirometry measurements were taken pre and post treatment with nebulized nalbuphine.
# [2] = nalbuphine and its salts; cited from earlier work
# [3] = asthmatic taking advair diskus, post nebulized nalbuphine
# [4] = post nebulized nalbuphine vs pre-nalbuphine
# [5] = smoker treated with combivent and spiriva, post nebulized nalbuphine
# [6] = Treatment #1, vs pre-nalbuphine
# [7] = Treatment #1, vs pre-nalbuphine, listed as nalbuphine
# [8] = Treatment #2, vs pre-nalbuphine
# [9] = Treatment #3, vs pre-nalbuphine
structure (smiles),measurement,setting,value
"Oc1ccc2c3c1O[C@H]1[C@@H](O)CC[C@@]4(O)[C@@H](C2)N(CC2CCC2)CC[C@]314 [Nalbuphine, nalbuphine]",FEV1 % of Prediction,asthmatic; [3],35%
same,FEV1 (L) Actual,asthmatic; [3],0.555 L
same,FVC % of Prediction,asthmatic; [3],54%
same,FVC (L) Actual,asthmatic; [3],1.155 L
same,FEV1 % Change,asthmatic; [4],48%
same,FVC % Change,asthmatic; [4],35%
same,FVC and FEV1 after treatment,asthmatic; summary in words,dramatic increase in FVC and FEV1
same,FEV1 % Change,smoker; [4],39%
same,FVC % Change,smoker; [4],34%
same,FEV1 % of Prediction,smoker; [5],84%
same,FEV1 (L) Actual,smoker; [5],2.745 L
same,FVC % of Prediction,smoker; [5],78%
same,FVC (L) Actual,smoker; [5],3.285 L
same,lung capacity and airflow after treatment,smoker; summary in words,marked improvement in lung capacity and airflow
same,FEF (25–75%) % of Prediction,[1]; Treatment #1,130%
same,FEF (25–75%) (L/S) Actual,[1]; Treatment #1,5.043 L/S
same,FEV1 % of Prediction,[1]; Treatment #1,139%
same,FEV1 (L) Actual,[1]; Treatment #1,4.223 L
same,FEV1/FVC % of Prediction,[1]; Treatment #1,106%
same,FEV1/FVC (%) Actual,[1]; Treatment #1,84%
same,FVC % of Prediction,[1]; Treatment #1,133%
same,FVC (L) Actual,[1]; Treatment #1,5.035 L
same,PEF % of Prediction,[1]; Treatment #1,93%
same,PEF (L/S) Actual,[1]; Treatment #1,5.98 L/S
same,FEF (25–75%) % Change,[1]; [6],37.50%
same,FEV1 % Change,[1]; [6],46%
same,FEV1/FVC % Change,[1]; [6],2%
same,FVC % Change,[1]; [6],44.0%
same,PEF % Change,[1]; [6],−6.4%
same,FEV1 % Change,[1]; [7],forty six
same,FVC % Change,[1]; [7],forty-four
same,FEF (25–75%) % of Prediction,[1]; Treatment #2,137%
same,FEF (25–75%) (L/S) Actual,[1]; Treatment #2,5.327 L/S
same,FEV1 % of Prediction,[1]; Treatment #2,134%
same,FEV1 (L) Actual,[1]; Treatment #2,4.259 L
same,FEV1/FVC % of Prediction,[1]; Treatment #2,107%
same,FEV1/FVC (%) Actual,[1]; Treatment #2,84%
same,FVC % of Prediction,[1]; Treatment #2,127%
same,FVC (L) Actual,[1]; Treatment #2,4.827 L
same,PEF % of Prediction,[1]; Treatment #2,113%
same,PEF (L/S) Actual,[1]; Treatment #2,7.297 L/S
same,FEF (25–75%) % Change,[1]; [8],45%
same,FEV1 % Change,[1]; [8],40%
same,FEV1/FVC % Change,[1]; [8],2%
same,FVC % Change,[1]; [8],38%
same,PEF % Change,[1]; [8],14%
same,FEF (25–75%) % of Prediction,[1]; Treatment #3,129%
same,FEF (25–75%) (L/S) Actual,[1]; Treatment #3,4.998 L/S
same,FEV1 % of Prediction,[1]; Treatment #3,136%
same,FEV1 (L) Actual,[1]; Treatment #3,4.11 L
same,FEV1/FVC % of Prediction,[1]; Treatment #3,110%
same,FEV1/FVC (%) Actual,[1]; Treatment #3,87%
same,FVC % of Prediction,[1]; Treatment #3,125%
same,FVC (L) Actual,[1]; Treatment #3,4.733 L
same,PEF % of Prediction,[1]; Treatment #3,112%
same,PEF (L/S) Actual,[1]; Treatment #3,7.225 L/S
same,FEF (25–75%) % Change,[1]; [9],36%
same,FEV1 % Change,[1]; [9],42%
same,FEV1/FVC % Change,[1]; [9],6%
same,FVC % Change,[1]; [9],35%
same,PEF % Change,[1]; [9],13%
same,lung capacity and airflow after treatment,[1]; summary in words,marked improvement in lung capacity and airflow
same,solubility in water,[2],sparingly soluble in water
